Source: the supplement of paper PMC8149375
Where “and” joins values, the source holds several entries; their conditions need not be identical. Equal entries are not always repeated.

Columns and labels:
Settings in all cases: treatment: drug alone; 5 days
[1] = system: SN12C; assay: GI50, drug alone; higher = less potent
Description: (§1)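 Primary HTS: 8 RCC cell lines treated with 8 doses (up to 10 uM) of each library drug alone for 5 days; viability read by CellTiter-Glo and normalised to DMSO. GI50 was fitted with XLfit (4-parameter), AUC is the area under the dose-response curve, and minimum viability is the lowest fraction of DMSO viability across doses.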

[2] = system: 786-O; assay: GI50, drug alone; higher = less potent
Description: as §1

[3] = system: UO-31; assay: GI50, drug alone; higher = less potent
Description: as §1

[4] = system: A498; assay: GI50, drug alone; higher = less potent
Description: as §1

[5] = system: CAKI-1; assay: GI50, drug alone; higher = less potent
Description: as §1

[6] = system: 769-P; assay: GI50, drug alone; higher = less potent
Description: as §1

[7] = system: TK-10; assay: GI50, drug alone; higher = less potent
Description: as §1

[8] = system: ACHN; assay: GI50, drug alone; higher = less potent
Description: as §1

[9] = system: SN12C; assay: minimum viability across doses, drug alone, relative to DMSO (fraction); higher = less growth inhibition
Description: as §1

[10] = system: 786-O; assay: as above
Description: as §1

[11] = system: UO-31; assay: as above
Description: as §1

[12] = system: A498; assay: as above
Description: as §1

[13] = system: CAKI-1; assay: as above
Description: as §1

[14] = system: 769-P; assay: as above
Description: as §1

[15] = system: TK-10; assay: as above
Description: as §1

[16] = system: ACHN; assay: as above
Description: as §1

[17] = system: SN12C; assay: AUC of dose-response viability curve, drug alone (arbitrary (AUC of normalised viability)); higher = less growth inhibition
Description: as §1

[18] = system: 786-O; assay: as above
Description: as §1

[19] = system: UO-31; assay: as above
Description: as §1

[20] = system: A498; assay: as above
Description: as §1

[21] = system: CAKI-1; assay: as above
Description: as §1

[22] = system: 769-P; assay: as above
Description: as §1

[23] = system: TK-10; assay: as above
Description: as §1

[24] = system: ACHN; assay: as above
Description: as §1

SMILES	GI50, drug alone [2]	GI50, drug alone [8]	GI50, drug alone [1]	GI50, drug alone [3] [nM]	GI50, drug alone [4]	GI50, drug alone [5]	GI50, drug alone [6]	GI50, drug alone [7]	minimum viability across doses [9]	minimum viability across doses [10]	minimum viability across doses [11]	minimum viability across doses [12]	minimum viability across doses [13]	minimum viability across doses [14]	minimum viability across doses [15]	minimum viability across doses [16]	AUC of dose-response viability curve [17]	AUC of dose-response viability curve [18]	AUC of dose-response viability curve [19]	AUC of dose-response viability curve [20]	AUC of dose-response viability curve [21]	AUC of dose-response viability curve [22]	AUC of dose-response viability curve [23]	AUC of dose-response viability curve [24]
COc1cc2ncnc(Nc3ccc(F)c(Cl)c3)c2cc1NC(=O)/C=C/CN1CCCCC1	24.3 nM	50.8 nM	1360 nM	2820	3000 nM	1300 nM	210 nM	146 nM	0.00743	0.0062	0.0173	0.0166	0.00809	0.0108	0.0112	0.00434	2.09	1.39	2.7	3.2	2.17	1.85	1.7	1.4
C[C@@H](Oc1cc(-c2cnn(C3CCNCC3)c2)cnc1N)c1c(Cl)ccc(F)c1Cl	1840 nM	4030 nM	2430 nM	4170	9410 nM	4010 nM	6060 nM	5340 nM	0.154	0.0211	0.169	0.346	0.0408	0.117	0.239	0.225	2.68	2.67	3.1	3.48	3.06	3.14	3.23	3.07
CCc1cc2c(cc1N1CCC(N3CCOCC3)CC1)C(C)(C)c1[nH]c3cc(C#N)ccc3c1C2=O	> 10000 nM	5470 nM	> 10000 nM	> 10000	> 10000 nM	5020 nM	> 10000 nM	> 10000 nM	0.801	0.655	1.02	1.06	0.428	0.922	0.612	0.366	3.28	3	6.33	5.08	2.98	3.67	2.93	3
CN1CCN(c2cccc(Nc3nc4c(-c5ccc(S(C)(=O)=O)cc5)cccn4n3)c2)CC1	> 10000 nM	1400 nM	> 10000 nM	> 10000	> 10000 nM	2310 nM	> 10000 nM	3530 nM	0.599	0.585	0.707	1.13	0.244	0.782	0.298	0.293	3.13	3.18	4.6	4.91	2.85	3.49	2.82	2.65
CO[C@@H](C(=O)N1Cc2[nH]nc(NC(=O)c3ccc(N4CCN(C)CC4)cc3)c2C1)c1ccccc1	227 nM and 213 nM	1300 nM and 603 nM	1190 nM and 929 nM	> 10000	8180 nM and > 10000 nM	1110 nM and 960 nM	8850 nM and 8390 nM	2640 nM and 1850 nM	0.174 and 0.144	0.00938 and 0.00426	0.7 and 0.698	0.516 and 0.594	0.139 and 0.0977	0.463 and 0.473	0.174 and 0.139	0.176 and 0.142	2.38 and 2.35	1.52 and 1.67	3.34 and 3.7	3.26 and 3.77	2.45 and 2.51	3.09 and 3.4	2.6 and 2.61	2.19 and 2.18

Second part, led by results:

GI50, drug alone [2]	GI50, drug alone [8]	SMILES	GI50, drug alone [1]	GI50, drug alone [3] [nM]	GI50, drug alone [4]	GI50, drug alone [5]	GI50, drug alone [6]	GI50, drug alone [7]	minimum viability across doses [9]	minimum viability across doses [10]	minimum viability across doses [11]	minimum viability across doses [12]	minimum viability across doses [13]	minimum viability across doses [14]	minimum viability across doses [15]	minimum viability across doses [16]	AUC of dose-response viability curve [17]	AUC of dose-response viability curve [18]	AUC of dose-response viability curve [19]	AUC of dose-response viability curve [20]	AUC of dose-response viability curve [21]	AUC of dose-response viability curve [22]	AUC of dose-response viability curve [23]	AUC of dose-response viability curve [24]
> 10000 nM	> 10000 nM	COCC(=O)NC/C=C/c1ccc2ncnc(Nc3ccc(Oc4ccc(C)nc4)c(C)c3)c2c1	> 10000 nM	> 10000	> 10000 nM	> 10000 nM	> 10000 nM	> 10000 nM	0.739	0.717	1.11	1.07	0.937	0.878	0.661	0.61	3.1	2.92	5.09	4.6	3.51	3.37	3.07	3.39
2760 nM	1860 nM	CN(C)c1ccc(-c2nc3c(N4CCN(CC(=O)Nc5nccs5)CC4)c(Cl)cnc3[nH]2)cc1	5400 nM	2010	> 10000 nM	1260 nM	5510 nM	> 10000 nM	0.434	0.259	0.0202	0.622	0.115	0.39	0.574	0.18	2.76	2.24	3.93	4.21	2.57	2.85	2.91	2.58
451 nM	732 nM	Cc1cc(CN2CCN(c3c(Br)cnc4[nH]c(-c5ccc(N6CCN(C)CC6)cc5)nc34)CC2)no1	2420 nM	8570	3350 nM	885 nM	858 nM	2840 nM	0.0135	0.00301	0.0211	0.0157	0.00778	0.0185	0.177	0.00704	2.74	2.01	4.13	3.57	2.6	2.44	2.61	2.36
